Assay results taken from patent EP4548971A1, “1,4-BENZOTHIAZEPINES AND RELATED COMPOUNDS WITH CYCLOPROPANOL GROUPS AS MULTI-TARGETED DRUGS” (Georg-August-Universität Göttingen Stiftung Öffentlichen …, priority 2023, dated 2025).

What was measured:
[1] = test system: HL-1 cardiac cells; experiment: CytoTox-Glo cytotoxicity assay (cell viability); assay type: cell-based; details: CytoTox-Glo assay in 100 µM solutions after 24 h incubation
Experimental: Cell viability was assessed using CytoTox-Glo™ Cytotoxicity Assay according to the manufacturing procedure (Promega GmbH). Briefly, HL-1 cardiac cells were cultivated for 24 h in black-walled, clear-bottom 96-well micro-plates (Corning) covered with fibronectin in DMEM, containing different concentrations of the tested compound (10,000 cells/well). Luminescence of a luminogenic peptide substrate was measured before and after addition of the lysis reagent (digitonin). The viable cell contribution was determined by a subtractive method. 0.1% DMSO treated cell were taken as a control.
The membrane permeability of the derivatives was determined using cell-free transport models (PermeaPad®, innoME GmbH), and permeability rates (Pe), which are a measure of how fast a compound can cross a membrane, were established (Table 1).

[2] = target: T1, SERCA2a (Mus musculus, UniProt O55143); experiment: NADH-coupled ATPase assay on microsomal membrane vesicles from mouse heart ventricles (mouse SR); assay type: biochemical; design: key to SERCA2a mouse SR effect class: +++: a strong effect, comparable to or greater than that of a known compounds at a given concentration (25 µM in RyR2 R-CEPIA1er assay, 10 µM in caffeine assay and on microsomal membrane vesicles); ++: moderate effect; +: observable effect; -: no effect; details: for SERCA2a mouse SR effect class: 10 µM on microsomal membrane vesicles
T1 construct: host or cells: HL-1 cardiac cells
Experimental: All animal procedures were performed in accordance with Directive 2010/63/EU of the European Parliament and the Council on the protection of animals used in research, as well as Animal Welfare Law of the Federal Republic of Germany (Tierschutzgesetz der Bundesrepublik Deutschland, TierSchG). […] All mice were housed with a 12 hours light/dark cycle with free access to food and water. Adult C57BL/6N mice of both genders were sedated with isoflurane in a sealed container and quickly euthanized by cervical dislocation. Heart ventricles were taken out instantly, washed with ice cold PBS plus complete, cut into smaller pieces and snap frozen in liquid nitrogen straight away.
Thawed on ice lysis buffer (10mM EDTA, 10mM HEPES, cOmplete, pH 7.4) was added and the ventricles were homogenized with a Qiagen cellruptor for 20 s. On ice an equal volume of restoration buffer (500 mM sucrose, 10 mM HEPES, cOmplete, pH7.2) was added and briefly mixed. The homogenate was centrifuged at 10000 × g for 20 min at 4° C. The supernatant was collected and centrifuged again for another hour (100000 × g at 4°C). Then the pellet was carefully resuspended in resuspension buffer (250 mM sucrose, 10 mM HEPES, cOmplete, pH 7.2) on ice by pipetting the solution up and down until fully dissolved. The obtained solution was diluted to a protein concentration of 5 µg/µl with the resuspension buffer and the aliquots were snap frozen in liquid nitrogen and then stored at -80 °C until usage.
To determine whether new compounds could increase the SERCA2a activity, HEK-293 microsomes (40 - 150 µg of total protein) or mouse ventricular microsomes (1 - 20 µg of total protein) were diluted in 100 µl of the assay buffer used for measurement of SERCA activity (described below) and incubated at room temperature for 5 minutes prior to the experiments. The measurements of SERCA2a activity were made at 28 °C by using a NADH -coupled ATPase assay. Briefly, the assay buffer contained 60 mM MOPS, 120 mM KCI, 6 mM MgCl2, 1 mM EGTA, 5 mM NaN3, 0.5 mM phosphoenolpyruvate and 1.5 mM CaCl2, pH 7.0. Before the reaction was started by the injection of […] ATP (resulting in 2 mM final concentration in the well), 5 units/mL of both lactate dehydrogenase and pyruvate kinase, 0.5 mM NADH, and 1 µM Ca^2+ ionophore A-23187 (Sigma, C-7522) were added to the diluted sample with or without the tested compound. The 1.5 mM Ca/EGTA buffer has a free Ca^2+ concentration of about 200 µM. The NADH fluorescence decrease was recorded each 2 s for 10 min course on a multiwell plate reader TECAN Spark 20M in 96-well glass bottom plates (MatTek Corporation; Cat. No. PBK96G-1.5-5-F). Fluorescence was evoked by 380 nm excitation wavelength and collected in a bottom-read mode at 425 nm. Exposure - 30 flashes, excitation bandwidth - 10 nm, emission bandwidth - 10 nm. ATP was injected at 30 s. […] The data were analyzed with computer software GraphPad Prism version 8.3.1 (GraphPad Software, Inc.). The difference in signal decrease with and without microsomes was taken as an indicator for the additional ATPase activity performed by SERCA2a. The obtained values for maximal SERCA2a activity were normalized for total protein concentration. Maximal SERCA2a activity values are reported as percentages of control (0.1% DMSO) values. Microsomal samples that were kept on ice until usage and set to 100%.
In an NADH assay, the change in NADH coenzyme fluorescence reflects the level of the consumption of ATP, which can be taken as an indicator of SERCA2 activity [G. B. Warren, P. A. Toon, N. J. Birdsall, A. G. Lee, J. C. Metcalfe, Reconstitution of a calcium pump using defined membrane components. Proc. Natl. Acad. Sci. U.S.A. 1974, 71, 622 - 626]. ATP hydrolysis by SERCA2 is required to pump calcium ions into the SER. A higher rate of ATP hydrolysis corresponds to enhanced SERCA2 ATPase activity that leads to a greater pumping of calcium ions into the SR. […]

T1 sequence (O55143 1-998 isoform O55143-2): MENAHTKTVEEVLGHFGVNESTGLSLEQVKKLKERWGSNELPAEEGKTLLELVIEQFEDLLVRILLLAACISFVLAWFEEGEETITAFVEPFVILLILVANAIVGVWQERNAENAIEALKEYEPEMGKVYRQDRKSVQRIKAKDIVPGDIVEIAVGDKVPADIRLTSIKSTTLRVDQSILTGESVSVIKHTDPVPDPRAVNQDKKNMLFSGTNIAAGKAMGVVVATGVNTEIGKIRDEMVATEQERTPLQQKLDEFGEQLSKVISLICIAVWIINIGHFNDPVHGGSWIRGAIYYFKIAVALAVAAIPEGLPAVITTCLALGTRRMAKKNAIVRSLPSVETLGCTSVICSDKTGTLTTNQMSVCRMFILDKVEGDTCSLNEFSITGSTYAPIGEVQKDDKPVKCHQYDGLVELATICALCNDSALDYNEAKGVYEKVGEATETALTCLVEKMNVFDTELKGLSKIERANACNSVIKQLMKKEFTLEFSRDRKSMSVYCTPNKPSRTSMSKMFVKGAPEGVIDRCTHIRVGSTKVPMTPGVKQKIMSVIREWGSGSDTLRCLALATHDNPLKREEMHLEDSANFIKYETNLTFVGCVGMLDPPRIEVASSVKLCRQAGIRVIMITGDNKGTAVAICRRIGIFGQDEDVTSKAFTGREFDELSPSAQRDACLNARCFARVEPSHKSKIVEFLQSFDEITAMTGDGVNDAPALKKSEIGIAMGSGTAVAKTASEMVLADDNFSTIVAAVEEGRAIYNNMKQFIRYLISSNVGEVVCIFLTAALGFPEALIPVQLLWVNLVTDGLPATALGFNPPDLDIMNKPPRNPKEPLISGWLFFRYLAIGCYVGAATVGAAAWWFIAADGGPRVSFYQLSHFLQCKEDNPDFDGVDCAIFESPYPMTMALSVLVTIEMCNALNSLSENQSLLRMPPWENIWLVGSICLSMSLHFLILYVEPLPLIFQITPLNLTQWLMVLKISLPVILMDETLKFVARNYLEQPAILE

| Compound | Viability [1] [%] | SERCA2a mouse SR effect class [2] | effect on ATPase activity, in words ([2]; cardiac SER vesicles from mouse heart, 10 µM (3 µM for 14b), vs. 0.1 v/v% DMSO) | EC50 ([2]; ATPase activity, range after the semicolon is not explained) [nM] |
| --- | --- | --- | --- | --- |
| COc1ccc2c(c1)CN(Cc1ccc(C(=O)O)cc1)CCS2 [ARM210, reference compound] | 90 | ++ |  |  |
| COc1ccc2c(c1)CN(CCCCNCCCCC1(O)CC1)CCS2 [Compound 13a, 1-(4-((4-(7-Methoxy-2,3-dihydrobenzo[1,4-f]-thiazepin-4(5H)-yl)butyl)amino)butyl)cyclopropan-1-ol] | 84 | + |  |  |
| COc1ccc(OCCCNCCCCC2(O)CC2)cc1 [Compound 13b, 1-(4-((3-(4-methoxyphenoxy)propyl)amino)butyl)cyclopropan-1-ol] | 100 | + |  |  |
| COc1ccc(SCCCNCCCCC2(O)CC2)cc1 [Compound 13c, 1-(4-((3-((4-Methoxyphenyl)thio)propyl)amino)butyl)cyclopropan-1-ol] | 73 | +++ |  |  |
| COc1ccc2c(c1)CN(CCCCC1(O)CC1)CCS2 [Compound 13d, 1-(4-(7-methoxy-2,3-dihydrobenzo[1,4-f]thiazepin-4(5H)-yl)butyl)cyclopropan-1-ol] | 95 | ++ | moderate |  |
| COc1ccc2c(c1)CN(CCCCN(CCCCC1(O)CC1)CCCCC1(O)CC1)CCS2 [Compound 14a, 1,1'-(((4-(7-Methoxy-2,3-dihydrobenzo[1,4-f]thiazepin-4(5H)-yl)butyl)azanediyl)bis(butane-4,1-diyl))bis(cyclopropan-1-ol)] | 80 | +++ |  | 383 |
| COc1ccc(SCCCN(CCCCC2(O)CC2)CCCCC2(O)CC2)cc1 [Compound 14c, 1,1'-(((3-((4-Methoxyphenyl)thio)propyl)azanediyl)bis(butane-4,1-diyl))bis(cyclopropan-1-ol)] | 90 | + |  |  |
| COc1ccc2c(c1)CN(C(=O)C(=O)O)CCS2 [Compound S36, reference compound] | 94 |  |  |  |
